# Source: patent US20140228287A1, “1-[(3-CYANO-PYRIDIN-2-YL)METHYL]-3-METHYL-7-(2-BUTYN-1-YL)-8-[3-(R)-AMINO-PIPERIDIN-1-YL]-AXANTHINE FOR THE TREATMENT OF A METABOLIC DISORDER OF A PREDOMINANTLY CARNIVOROUS NON-HUMAN ANIMAL” (BOEHRINGER INGELHEIM VETMEDICA GMBH, priority 2010, published 2014)
# Structures can show the parent of a compound that is named as a salt. Where two headings read alike, the source gives them in different places.
# Columns and labels:
# [1] = molecular target: T1, plasma DPP IV (Homo sapiens, UniProt P27487); assay: Inhibition of plasma DPP IV activity in vitro, human plasma; assay type: biochemical
# T1 construct: from tissue; host or cells: human plasma
# T1 sequence (P27487 39-766 limits assumed): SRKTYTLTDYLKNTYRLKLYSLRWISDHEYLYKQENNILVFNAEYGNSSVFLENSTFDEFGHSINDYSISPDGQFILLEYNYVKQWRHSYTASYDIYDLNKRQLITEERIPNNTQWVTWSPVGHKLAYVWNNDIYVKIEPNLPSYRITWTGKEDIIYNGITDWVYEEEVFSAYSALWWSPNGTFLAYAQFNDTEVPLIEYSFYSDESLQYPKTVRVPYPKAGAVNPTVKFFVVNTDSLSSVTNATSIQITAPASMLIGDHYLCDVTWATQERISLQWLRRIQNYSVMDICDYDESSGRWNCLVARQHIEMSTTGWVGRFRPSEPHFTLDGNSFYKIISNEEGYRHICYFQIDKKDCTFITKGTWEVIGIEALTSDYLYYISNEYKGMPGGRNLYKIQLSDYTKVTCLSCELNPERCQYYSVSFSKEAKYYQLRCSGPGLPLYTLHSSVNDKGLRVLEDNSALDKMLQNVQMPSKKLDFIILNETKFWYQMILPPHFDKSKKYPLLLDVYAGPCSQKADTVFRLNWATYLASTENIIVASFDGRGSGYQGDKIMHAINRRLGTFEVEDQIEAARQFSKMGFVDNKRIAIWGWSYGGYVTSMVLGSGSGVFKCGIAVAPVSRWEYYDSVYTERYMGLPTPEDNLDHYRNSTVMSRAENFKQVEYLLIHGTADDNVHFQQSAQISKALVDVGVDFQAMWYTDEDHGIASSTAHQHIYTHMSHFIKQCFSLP
# Protocol: Studies were also conducted to assess the inhibitory effect of this compound on plasma DPP IV activity in several species.
# [2] = molecular target: plasmin (Homo sapiens, UniProt P00747); assay: In vitro selectivity, human proteases: plasmin; assay type: biochemical; settings: up to 100 μM
# Chain of plasmin (P00747 581-810 limits assumed): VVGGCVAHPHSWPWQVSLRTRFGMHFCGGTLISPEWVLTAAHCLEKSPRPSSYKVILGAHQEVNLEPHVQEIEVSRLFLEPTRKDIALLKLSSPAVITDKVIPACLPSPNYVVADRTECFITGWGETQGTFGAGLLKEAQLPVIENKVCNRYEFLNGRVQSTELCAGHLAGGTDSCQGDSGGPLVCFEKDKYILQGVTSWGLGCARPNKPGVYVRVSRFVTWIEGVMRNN
# Chain of plasmin (P00747 97-580 partner limits assumed): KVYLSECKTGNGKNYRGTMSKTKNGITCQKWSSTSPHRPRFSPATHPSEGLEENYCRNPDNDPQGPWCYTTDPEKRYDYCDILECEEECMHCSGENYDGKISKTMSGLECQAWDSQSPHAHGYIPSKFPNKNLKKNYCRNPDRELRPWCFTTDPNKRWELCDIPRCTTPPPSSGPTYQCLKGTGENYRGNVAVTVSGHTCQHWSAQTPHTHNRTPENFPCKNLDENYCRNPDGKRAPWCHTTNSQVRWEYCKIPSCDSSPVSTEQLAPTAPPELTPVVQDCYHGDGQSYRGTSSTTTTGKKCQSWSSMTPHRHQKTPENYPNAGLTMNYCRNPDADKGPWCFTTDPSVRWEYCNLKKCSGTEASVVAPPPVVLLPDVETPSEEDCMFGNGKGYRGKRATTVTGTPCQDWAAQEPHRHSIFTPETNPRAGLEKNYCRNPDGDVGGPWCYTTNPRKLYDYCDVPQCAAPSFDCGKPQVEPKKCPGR
# Excerpt: (§1) In order to determine the in vitro selectivity of 1-[(3-cyano-pyridin-2-yl)methyl]-3-methyl-7-(2-butyn-1-yl)-8-[3-(R)-amino-piperidin-1-yl]-xanthine, the ability of this compound to inhibit a number of human proteases was investigated as described in Thomas et al. (2008), J. Pharmacol. Exp. Ther., vol. 325, p. 175-182, chapter In vitro DPP-4 Inhibition Assay, p. 176.
# [3] = molecular target: DPP-II (Homo sapiens, UniProt Q9UHL4); assay: In vitro selectivity, human proteases: DPP-II; assay type: biochemical; settings: up to 100 μM
# Excerpt: as §1
# [4] = molecular target: DPP 8 (Homo sapiens, UniProt Q6V1X1); assay: In vitro selectivity, human proteases: DPP 8; assay type: biochemical
# Chain of DPP 8 (Q6V1X1 whole entry): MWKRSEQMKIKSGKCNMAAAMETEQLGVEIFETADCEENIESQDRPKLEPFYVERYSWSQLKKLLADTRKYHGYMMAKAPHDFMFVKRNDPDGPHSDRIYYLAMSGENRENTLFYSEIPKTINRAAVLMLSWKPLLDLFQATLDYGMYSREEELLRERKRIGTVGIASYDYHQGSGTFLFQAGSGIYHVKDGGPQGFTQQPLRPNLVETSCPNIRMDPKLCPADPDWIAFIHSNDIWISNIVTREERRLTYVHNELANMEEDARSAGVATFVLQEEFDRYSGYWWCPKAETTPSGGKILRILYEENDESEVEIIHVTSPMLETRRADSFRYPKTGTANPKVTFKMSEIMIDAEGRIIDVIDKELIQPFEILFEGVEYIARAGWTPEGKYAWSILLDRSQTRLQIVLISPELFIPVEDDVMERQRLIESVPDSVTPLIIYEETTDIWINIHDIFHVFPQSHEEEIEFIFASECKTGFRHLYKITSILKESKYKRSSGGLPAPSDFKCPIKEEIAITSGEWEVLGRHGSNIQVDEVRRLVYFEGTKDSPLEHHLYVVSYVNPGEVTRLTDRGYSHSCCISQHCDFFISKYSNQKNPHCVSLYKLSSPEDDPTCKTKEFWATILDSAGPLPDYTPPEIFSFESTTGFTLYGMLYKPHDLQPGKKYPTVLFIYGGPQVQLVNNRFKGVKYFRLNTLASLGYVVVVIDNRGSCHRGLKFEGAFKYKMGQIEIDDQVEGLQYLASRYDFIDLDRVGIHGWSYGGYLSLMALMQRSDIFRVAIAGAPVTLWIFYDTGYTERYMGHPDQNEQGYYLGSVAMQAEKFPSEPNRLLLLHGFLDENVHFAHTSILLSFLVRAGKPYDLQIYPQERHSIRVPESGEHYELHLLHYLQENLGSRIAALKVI
# Excerpt: as §1
# [5] = tested on: diabetic ZDF rats; assay: Delayed OGTT in diabetic ZDF rats; assay type: in vivo, rat; settings: 1 mg/kg 16 hours before the test
# Protocol: A delayed oral glucose tolerance test (OGTT) was applied to diabetic db/db mice and diabetic ZDF rats, as describes in the following.
# Male Zucker Diabetic Fatty (ZDF) rats (ZDF/Crl-Leprfa) were obtained from Charles River (USA). Animals were fed ad libitum with a special pelleted diet (Diet No. 2437 [containing 4.5% sucrose], Provimi Kliba, Switzerland) and had free access to water. Animals were housed in groups with a 12 h/12 h light/dark cycle (lights out between 6 p.m. and 6 a.m.). The rats were used for the experiments at 12 weeks of age.
# The day before the OGTT, a blood sample from db/db mice or ZDF rats fasted for 2 hours was obtained by cutting the tip of the tail without anaesthesia and the animals were randomized for glucose (n=7 per group). The animals were fed again for 2 hours and then orally administered with either vehicle or 1-[(3-cyano-pyridin-2-yl)methyl]-3-methyl-7-(2-butyn-1-yl)-8-[3-(R)-amino-piperidin-1-yl]-xanthine monohydrochloride at doses between 0.3 and 3 mg/kg bw. A basal blood sample (pre-load) was obtained the next morning after overnight fasting for 16 hours by cutting the tip of the tail without anaesthesia. […] Additional blood samples were taken from the tip of the tail 30 min, 60 min, 90 min, 120 min, and 180 min after the glucose load, and blood glucose was measured. […]
# [6] = molecular target: T2, DPP IV (Felis catus, UniProt Q9N2I7); assay: Exploratory single dose PK/PD (0.01/0.1/1.0 mg/kg) in cats: DPP IV activity; assay type: in vivo; settings: read-out: DPP IV activity in cat plasma; for response vs control in vivo at 0.01 mg/kg: 0.01 mg/kg single oral; for response vs control in vivo at 0.1 mg/kg: 0.1 mg/kg single oral; for response vs control in vivo at 1 mg/kg: 1 mg/kg single oral
# T2 construct: Blood samples for the determination of this compound and DPP IV activity were collected; from tissue; host or cells: plasma of domestic short hair / purpose-bred cats dosed orally
# T2 sequence (Q9N2I7 38-765 limits assumed): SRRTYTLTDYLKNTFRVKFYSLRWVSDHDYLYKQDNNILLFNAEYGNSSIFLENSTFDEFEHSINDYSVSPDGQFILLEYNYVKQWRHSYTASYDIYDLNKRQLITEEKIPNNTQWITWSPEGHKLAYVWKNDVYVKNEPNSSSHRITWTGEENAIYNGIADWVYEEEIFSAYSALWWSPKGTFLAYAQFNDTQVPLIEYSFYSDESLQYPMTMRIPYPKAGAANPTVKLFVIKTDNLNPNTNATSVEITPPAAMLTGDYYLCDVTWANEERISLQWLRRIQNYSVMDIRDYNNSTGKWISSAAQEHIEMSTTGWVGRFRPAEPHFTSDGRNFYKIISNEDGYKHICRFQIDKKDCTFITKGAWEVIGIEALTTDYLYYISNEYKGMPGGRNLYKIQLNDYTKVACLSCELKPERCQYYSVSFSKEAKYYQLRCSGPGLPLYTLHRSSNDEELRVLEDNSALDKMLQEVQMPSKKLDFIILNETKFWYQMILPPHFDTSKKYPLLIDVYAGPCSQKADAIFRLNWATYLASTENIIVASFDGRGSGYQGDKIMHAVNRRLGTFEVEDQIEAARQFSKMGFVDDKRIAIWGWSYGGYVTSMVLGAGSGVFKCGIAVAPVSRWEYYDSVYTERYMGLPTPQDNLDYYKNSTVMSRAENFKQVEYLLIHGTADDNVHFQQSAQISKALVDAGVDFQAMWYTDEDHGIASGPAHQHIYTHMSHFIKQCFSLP
# Protocol: The investigation of the PK/PD values was conducted in the same way as in Example 7, with the variations described below.
# The aim of this study was to investigate the PK/PD of 1-[(3-cyano-pyridin-2-yl)methyl]-3-methyl-7-(2-butyn-1-yl)-8-[3-(R)-amino-piperidin-1-yl]-xanthine monohydrochloride in the cat after a single oral administration of 0, 0.01, 0.1 and 1.0 mg/kg body weight of this compound (dosages were based on the free base).
# Eleven clinically healthy male adult domestic short hair cats with a body weight range of 3.5-5.0 kg were used in this study. All animals were treated orally once via a stomach tube. Blood samples were drawn at 0 h (i.e. prior to treatment), 30 min as well as 1, 2, 4, 8, 12, 24, 36, 48, 72 and 96 h after treatment and the activity of DPP IV was determined like in Example 6.
smiles,measurement,setting,value
CC#CCn1c(N2CCC[C@@H](N)C2)nc2c1c(=O)n(Cc1ncccc1C#N)c(=O)n2C [1-[(3-cyano-pyridin-2-yl)methyl]-3-methyl-7-(2-butyn-1-yl)-8-[3-(R)-amino-piperidin-1-yl]-xanthine monohydrochloride],IC50,[1],~0.0006 µM
same,inhibitory effect on plasmin,[2],did not exert any inhibitory effect
same,inhibitory effect on DPP-II,[3],did not exert any inhibitory effect
same,IC50,[4],95 µM
same,suppression of glucose excursion in OGTT,[5],35%
same,response vs control in vivo at 0.01 mg/kg,[6]; 0.5 h,73%
same,response vs control in vivo at 0.01 mg/kg,[6]; 1 h,66%
same,response vs control in vivo at 0.01 mg/kg,[6]; 2 h,71%
same,response vs control in vivo at 0.01 mg/kg,[6]; 4 h,77%
same,response vs control in vivo at 0.01 mg/kg,[6]; 8 h,85%
same,response vs control in vivo at 0.01 mg/kg,[6]; 12 h,88%
same,response vs control in vivo at 0.01 mg/kg,[6]; 24 h,90%
same,response vs control in vivo at 0.01 mg/kg,[6]; 36 h,87%
same,response vs control in vivo at 0.01 mg/kg,[6]; 48 h,88%
same,response vs control in vivo at 0.01 mg/kg,[6]; 72 h,85%
same,response vs control in vivo at 0.01 mg/kg,[6]; 96 h,90%
same,response vs control in vivo at 0.1 mg/kg,[6]; 0.5 h,23%
same,response vs control in vivo at 0.1 mg/kg,[6]; 1 h,17%
same,response vs control in vivo at 0.1 mg/kg,[6]; 2 h,16%
same,response vs control in vivo at 0.1 mg/kg,[6]; 4 h,24%
same,response vs control in vivo at 0.1 mg/kg,[6]; 8 h,39%
same,response vs control in vivo at 0.1 mg/kg,[6]; 12 h,50%
same,response vs control in vivo at 0.1 mg/kg,[6]; 24 h,67%
same,response vs control in vivo at 0.1 mg/kg,[6]; 36 h,83%
same,response vs control in vivo at 0.1 mg/kg,[6]; 48 h,82%
same,response vs control in vivo at 0.1 mg/kg,[6]; 72 h,91%
same,response vs control in vivo at 0.1 mg/kg,[6]; 96 h,90%
same,response vs control in vivo at 1 mg/kg,[6]; 0.5 h,10%
same,response vs control in vivo at 1 mg/kg,[6]; 1 h,10%
same,response vs control in vivo at 1 mg/kg,[6]; 2 h,8%
same,response vs control in vivo at 1 mg/kg,[6]; 4 h,10%
same,response vs control in vivo at 1 mg/kg,[6]; 8 h,12%
same,response vs control in vivo at 1 mg/kg,[6]; 12 h,15%
same,response vs control in vivo at 1 mg/kg,[6]; 24 h,27%
same,response vs control in vivo at 1 mg/kg,[6]; 36 h,63%
same,response vs control in vivo at 1 mg/kg,[6]; 48 h,72%
same,response vs control in vivo at 1 mg/kg,[6]; 72 h,80%
same,response vs control in vivo at 1 mg/kg,[6]; 96 h,86%
